# Laboratory results taken from patent publication US7776527B2, “Methods and compositions for reducing microbial induced apoptosis” (The Regents of the University of California, priority 2003, dated 2010).
# Like-named read-outs stand apart in the source and are kept apart here. Peptide text beside a SMILES is read from it. * marks the point of attachment. Cbz = O=C(OCc1ccccc1)*; CH2F = FC*
# Experiments:
# [1] = test system: PKR−/− BMDMs; assay type: cell-based, mouse
# Description: A. Bone marrow derived macrophages (BMDMs) from PKR+/+ and PKR−/− mice were left untreated or treated with LPS plus SB202190 or LT (2.5 μg/ml PA+500 ng/ml LF), 15-deoxy-12,14-prostaglandin J2 (5 μM), or doxorubicin (10 μg/ml), as indicated. After 16 hrs, the cells were stained with Hoechst 33258 (blue) or annexin V-Alexa568 (red). […] (FIG. 9a) B. Bone marrow derived macrophages (BMDMs) from PKR+/+ or PKR−/− mice were incubated with LPS for various time periods (in days) and analyzed by TUNEL staining to determine the extent of apoptosis. […] (FIG. 9b)
# [2] = test system: bone marrow derived macrophages (BMDMs); assay type: cell-based, mouse; conditions: for apoptotic response of BMDMs: C57BL/6J BMDMs
# [3] = test system: J774A.1 macrophage-like cells; assay: Nucleosomal DNA ladder in J774A.1 cells incubated with LPS plus SB202190 and pan-caspase inhibitor; assay type: cell-based; conditions: inhibitor 10, 100, 200 μM, 18 hrs
# Description: A. J774A.1 macrophage-like cells were incubated with LPS plus SB202190 (10 μM) whereas NIH3T3 fibroblasts were incubated with mouse TNF-α (10 ng/ml) plus cycloheximide (25 μg/ml). At the indicated time points cell lysates were prepared and analyzed by immunoblotting with antibodies specific to caspase-8. (FIG. 8a) B. J774A.1 macrophage-like cells were incubated with LPS plus SB202190 (10 μm), whereas NIH3T3 fibroblasts were incubated with mouse TNF-α (10 ng/ml) plus cycloheximide (25 μg/ml). At the indicated time points cell lysates were prepared and analyzed by immunoblotting with antibodies specific to caspase-3. (FIG. 8b) C. J774A.1 macrophage-like cells were incubated with or without LPS in the absence or presence of SB202190. When indicated, increasing concentrations (10, 100, and 200 μM) of a pan-caspase inhibitor (ZVAD-FMK) were added. After 18 hrs, genomic DNA was isolated and analyzed by agarose gel electrophoresis and EtBr staining for appearance of nucleosomal ladders indicative of apoptosis. (FIG. 8c)
# [4] = test system: IKKβ-deficient macrophages; assay: TUNEL apoptosis of IKKβ-deficient macrophages treated with TLR agonists or TNF-α; assay type: cell-based, mouse; conditions: without p38 inhibition, 12 hrs
# Description: Bone marrow derived macrophages from Ikkβ F/F (IKKβ+/+) or MX1Cre-Ikkβ F/F (IKKβ−/−) mice were untreated or treated with LPS (100 ng/ml), LTA from B. subtilis (10 μg/ml), poly(IC) (10 μg/ml), SBLP (Pam3CSK4, 1 μg/ml), CpG-containing DNA (1 μM), and mouse TNF-α (10 ng/ml). After 12 hrs, apoptotic cell death was quantitated by TUNEL staining. Inset, macrophage lysates were analyzed by immunoblotting with antibodies specific to IKKβ and p38. (FIG. 2e)
# [5] = target: T1, PKR (Mus musculus, UniProt Q03963); assay: PKR activation by autophosphorylation and eIF2α phosphorylation in macrophages; assay type: cell-based; conditions: for PKR activation (autophosphorylation, eIF2α phosphorylation): wt macrophages
# T1 construct: endogenous in cells; host or cells: wild-type mouse bone marrow derived macrophages (BMDMs)
# T1 sequence (Q03963 1-515): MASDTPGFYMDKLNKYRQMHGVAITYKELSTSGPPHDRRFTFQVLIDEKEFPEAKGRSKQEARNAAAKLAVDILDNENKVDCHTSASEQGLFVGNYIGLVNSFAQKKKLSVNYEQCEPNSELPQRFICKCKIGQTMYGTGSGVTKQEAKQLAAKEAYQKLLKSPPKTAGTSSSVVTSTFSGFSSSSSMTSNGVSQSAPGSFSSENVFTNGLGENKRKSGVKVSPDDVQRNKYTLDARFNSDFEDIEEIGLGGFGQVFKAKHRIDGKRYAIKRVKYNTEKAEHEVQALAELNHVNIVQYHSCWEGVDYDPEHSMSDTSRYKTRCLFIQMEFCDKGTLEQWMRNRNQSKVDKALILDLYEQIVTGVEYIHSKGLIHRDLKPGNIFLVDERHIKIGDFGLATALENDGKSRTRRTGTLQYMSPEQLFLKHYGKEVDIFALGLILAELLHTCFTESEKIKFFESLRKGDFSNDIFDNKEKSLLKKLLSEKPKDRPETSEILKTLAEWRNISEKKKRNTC
# Description: Whole cell extracts were prepared and PKR activity was measured by autophosphorylation (Gusella et al. J Immunol 154, 345-54, 1995) after immunoprecipitation with anti-PKR antibody (Santa Cruz).
# Phosphorylation of eIF2α was detected by immunoblotting with antibody against phosphorylated eIF2α (Biosource, Camarillo, Calif.). The same blot was stripped and probed with antibody against total eIF2αIKK and MAPK activation were measured as described (Park et al. Science 297, 2048-51, 2002). Phosphorylation of STAT1 (Medzhitov et al. Nature 388, 394-7 (1997) was monitored by immunoblotting with anti-phospho-STAT1 antibody (Cell Signaling, Beverly, Mass.).
# Bone marrow derived macrophages (BMDMs) (wt) were stimulated with LPS (100 ng/ml) or poly(IC) (10 μg/ml) or left unstimulated. At the indicated time points cells were lysed and PKR activation was monitored by autophosphorylation. Gel loading was controlled by immunoblotting for PKR. The same lysates were monitored for eIF-2α phosphorylation by immunoblotting with antibodies specific for phosphorylated eIF-2a (P-eIF-2α) and total eIF-2α (FIG. 3a)
# [6] = test system: bone marrow derived macrophages (BMDMs); assay type: cell-based, mouse; conditions: BMDMs preincubated with poly(IC) 6 hrs before infection
# [7] = test system: A1/Bfl1; assay: Immunoblotting of A1/Bfl1 and cIAP-1 after poly(IC) transfection and LPS; assay type: cell-based, mouse; conditions: wt BMDMs, poly(IC) transfection followed by LPS
# Description: PKR+/+ and PKR−/− BMDMs were transfected with or without poly(IC) using Lipofectamine (Diebold et al. Nature 424, 324-328, 2003). After 6 hrs, LPS was added and the levels of A1/Bfl1 and cIAP-1 were examined by immunoblotting. (FIG. 5b)
# [8] = test system: S. typhimurium; assay: Systemic S. typhimurium infection of mice pretreated with poly(IC); assay type: in vivo
# Description: Mice (7-10 weeks old) were injected i.p. with either PBS or 200-300 μg poly(IC) in PBS. After 20 hrs, mice were injected i.p. with 10^6 S. typhiumurium 14028 in PBS. Mice that were still alive were sacrificed after 24 hrs and their spleens removed. For certain experiments, tissue was homogenized in PBS+0.1% Triton X-100. To determine bacterial counts, tissue homogenates were diluted in PBS and plated on LB agar and colonies were counted after overnight incubation at 37° C.
# B. Mice (wt and PKR−/−) were Injected i.p. with PBS or 200-300 μg Poly(IC) in PBS
# After 20 hrs the mice were injected i.p. with 10^6 S. typhimurium (14028) bacteria suspended in PBS. After 24 hrs, survival was monitored and mice that were still alive were sacrificed and the numbers of live bacteria within their spleens determined. * represents p=0.007. (FIG. 7b)
# C. Mice were Treated as Above and Parts of their Spleens Analyzed for the Presence Of Apoptotic Cells by TUNEL Staining
# Photograph was taken from the splenic red pulp where macrophages reside. (FIG. 7c)
# [9] = with p38 inhibition (SB202190 10 μM), 18 hrs
compound,measurement,setting,value
"CCCCCC=CC=C1C(=O)C=C[C@@H]1CC=CCCCC(=O)O [15-deoxy-12,14-prostaglandin J2]",apoptosis of PKR−/− BMDMs,[1],still underwent apoptosis
Oc1ccc(-c2nc(-c3ccncc3)c(-c3ccc(F)cc3)[nH]2)cc1 [SB202190],macrophage apoptosis induced by heat-inactivated B. anthracis,"[2]; in the presence of SB202190 (10 μM), 18 hrs, TUNEL",extensive macrophage apoptosis
C[C@@H]1C[C@@H]([C@H](O)CC2CC(=O)NC(=O)C2)C(=O)[C@@H](C)C1 [cycloheximide],apoptosis on mere incubation,"[2]; wt or PKR−/− BMDMs, cycloheximide 10 μg/ml",triggered apoptosis
COc1cccc2c1C(=O)c1c(O)c3c(c(O)c1C2=O)C[C@@](O)(C(=O)CO)C[C@@H]3O[C@H]1C[C@H](N)[C@H](O)[C@H](C)O1 [doxorubicin],apoptosis of PKR−/− BMDMs,"[1]; PKR−/− BMDMs, 16 hrs, annexin V",still underwent apoptosis
"COC(=O)C[C@H](NC(=O)[C@H](C)NC(=O)[C@@H](NC(=O)OCc1ccccc1)C(C)C)C(=O)CF [pan-caspase inhibitor, ZVAD-FMK] (Cbz-Val-Ala-Asp(OMe)-CH2F)",effect on LPS-induced macrophage apoptosis,[3],apoptosis was inhibited
Pam3CSK4 [SBLP],apoptotic response of BMDMs,[2]; [9],Little apoptosis
TNF-α,apoptosis of IKKβ-deficient macrophages,[4],underwent apoptosis
lipopolysaccharide [LPS],"PKR activation (autophosphorylation, eIF2α phosphorylation)",[5],rapidly activated
same,apoptotic response of BMDMs,[2]; [9],strong apoptotic response
same,apoptosis on prolonged incubation,"[2]; wt BMDMs, without p38 inhibition, prolonged incubation (days)",resulted in apoptosis
same,apoptosis of IKKβ-deficient macrophages,[4],underwent apoptosis
lipoteichoiec acid [LTA],apoptosis of IKKβ-deficient macrophages,[4],underwent apoptosis
poly(IC),effect on apoptosis in response to live S. typhimurium or Y. pseudotuberculosis,[6],potentiated apoptosis
same,accumulation of A1/Bfl1,[7],inhibited the accumulation
same,PKR activity after transfection versus simple addition to culture medium,[5]; poly(IC) introduced by transfection (lipofectamine),higher levels of PKR activity
same,"PKR activation (autophosphorylation, eIF2α phosphorylation)",[5],rapidly activated
same,apoptotic response of BMDMs,"[2]; without p38 inhibition, 18 hrs",weak apoptotic response
same,apoptosis after transfection versus simple addition to culture medium,"[2]; poly(IC) transfection, LPS added 6 hrs later, 18 hrs",higher level of apoptosis
same,sensitization of BMDMs to LPS-induced apoptosis,"[2]; with LPS, without SB202190",renders BMDMs susceptible to LPS-induced apoptosis
same,apoptosis of IKKβ-deficient macrophages,[4],more susceptible
same,"enhancement of bacterial load, apoptosis or mortality","[8]; PKR−/− mice, poly(IC) pretreatment",little enhancement
same,number of apoptotic cells in the red pulp of the spleens,"[8]; S. typhimurium infected wt mice, poly(IC) pretreatment",increased the number of apoptotic cells
same,increase in number of live bacteria recovered from the spleen,"[8]; wt mice, 200-300 μg poly(IC) i.p. before S. typhimurium, 24 hrs",3.5 fold
same,mortality caused by S. typhimurium infection,"[8]; wt mice, poly(IC) pretreatment",increased the mortality
